Experimental data as given in patent publication US10744175B2, “Herbal composition for the treatment of Herpes” (priority 2016, dated 2020).

Test system: Herpes simplex virus
Experiment: Administration to human subjects with Herpes symptoms (case reports)
Assay type: in vivo
Details: case 3: taken for years by man and woman positive for HSV 1 and 2
Experimental: • 1. Frequent Genital herpes outbreaks—A person from Karnataka, India, suffers from severe blistering, pain and burning around the pubic region and genitals due to one or more strains of the Herpes virus. The composition of the invention as disclosed in Example 1 is administered. […] Tiny pimple-like outbreaks around lips—A person—starts experiencing tiny pimples on their lips which later appear like blisters. Blood tests show high titer from HSV 1 antibodies. […] Each tests positive for HSV 1 and 2. […] A person reports the presence of abnormal cells along with the presence of HPV. These cells then develop into “pre-cancerous” cells. This subject daily ingests the composition of Example 1 for 4 months. […] After administration of the composition of Example 1 for over 6 months, the results for HPV come back negative. • 6. A person reports warts on their hands for about 6 years which they remove with laser therapy. This burns the skin and leaves scars. […] A person reports an HPV infection for 5 years. Within the first 6 months of daily ingestion of the composition of Example 1, all tests for HPV are negative and no recurrence is shown. • 8. A person ingests the composition of Example 1 along with an alkaline diet. This subject suffers from larger warts (around 10 in number). […]

## Nc1nc2c(ncn2COCCO)c(=O)[nH]1 [acyclovir]
  outcome of previous antiviral treatment: little success
